PubChem BioAssay AID1963975 (Molecular Pharmacology Branch, DTP, NCI, 2024)

System: 624824-186-R-J2-PDC multicell spheroids, viability
Assay: Anticancer human tumor 624824-186-R-J2-PDC patient-derived colon adenocarcinoma cell line growth inhibition [PI3K]
Settings: for IC50: curve of first compound; for viability, T/C: stronger effect = lower value
Outline: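 High-throughput combination screen: PI3K inhibitors crossed with targeted small molecules on complex spheroids of tumor cells, HUVEC and MSCs at 37 degrees C, 5% CO2. Top concentration was at or near clinical Cmax (otherwise 10 microM), with half-log decrements.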

[1] = second compound 0.00316 µM, first compound 0.0316 µM
[2] = second compound 0.00316 µM, first compound 0.1 µM
[3] = second compound 0.00316 µM, first compound 0.316 µM
[4] = second compound 0.00316 µM, first compound 1 µM
[5] = second compound 0.00316 µM, first compound 3.16 µM
[6] = second compound 0.00316 µM, first compound 10 µM
[7] = second compound 0.01 µM, first compound 0.0316 µM
[8] = second compound 0.01 µM, first compound 0.1 µM
[9] = second compound 0.01 µM, first compound 0.316 µM
[10] = second compound 0.01 µM, first compound 1 µM
[11] = second compound 0.01 µM, first compound 3.16 µM
[12] = second compound 0.01 µM, first compound 10 µM
[13] = second compound 0.0316 µM, first compound 0.0316 µM
[14] = second compound 0.0316 µM, first compound 0.1 µM
[15] = second compound 0.0316 µM, first compound 0.316 µM
[16] = second compound 0.0316 µM, first compound 1 µM
[17] = second compound 0.0316 µM, first compound 3.16 µM
[18] = second compound 0.0316 µM, first compound 10 µM
[19] = second compound 0.1 µM, first compound 0.0316 µM
[20] = second compound 0.1 µM, first compound 0.1 µM
[21] = second compound 0.1 µM, first compound 0.316 µM
[22] = second compound 0.1 µM, first compound 1 µM
[23] = second compound 0.1 µM, first compound 3.16 µM
[24] = second compound 0.1 µM, first compound 10 µM
[25] = second compound 0.316 µM, first compound 0.0316 µM
[26] = second compound 0.316 µM, first compound 0.1 µM
[27] = second compound 0.316 µM, first compound 0.316 µM
[28] = second compound 0.316 µM, first compound 1 µM
[29] = second compound 0.316 µM, first compound 3.16 µM
[30] = second compound 0.316 µM, first compound 10 µM
[31] = second compound 1 µM, first compound 0.0316 µM
[32] = second compound 1 µM, first compound 0.1 µM
[33] = second compound 1 µM, first compound 0.316 µM
[34] = second compound 1 µM, first compound 1 µM
[35] = second compound 1 µM, first compound 3.16 µM
[36] = second compound 1 µM, first compound 10 µM
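Further: spheroids exposed to agents for 7 days before viability read.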
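Wherever viability, T/C is given: 100% = DMSO vehicle treated spheroids.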

For `CNC(=O)c1ccc(N2C(=S)N(c3ccc(C#N)c(C(F)(F)F)c3)C(=O)C2(C)C)cc1F` + COc1c(OCCCN2CCOCC2)ccc2c3n(c(=NC(=O)c4cnc(N)nc4)nc12)CCN3, the IC50 (second compound 0.00316 µM) was over 10 µM, the IC50 (second compound 0.01 µM) was over 10 µM and the IC50 (second compound 0.0316 µM) was over 10 µM. It also gave an IC50 (second compound 0.1 µM) of over 10 µM, an IC50 (second compound 0.316 µM) of over 10 µM and an IC50 (second compound 1 µM) of over 10 µM. The viability, T/C [1] was 77.2%, the viability, T/C [2] was 74% and the viability, T/C [3] was 76.4%. For the same compound, the viability, T/C [4] was 91.7%, the viability, T/C [5] was 89.6% and the viability, T/C [6] was 110%. For the same compound, the viability, T/C [7] was 110%, the viability, T/C [8] was 103% and the viability, T/C [9] was 99.3%. For the same compound, the viability, T/C [10] was 94%, the viability, T/C [11] was 96.9% and the viability, T/C [12] was 99%. It also gave a viability, T/C [13] of 90.4%, a viability, T/C [14] of 81.7% and a viability, T/C [15] of 96.6%. The viability, T/C [16] was 96.5%, the viability, T/C [17] was 78.4% and the viability, T/C [18] was 89.7%. The viability, T/C [19] was 95.6%, the viability, T/C [20] was 71.8% and the viability, T/C [21] was 73.4%. The viability, T/C [22] was 84%, the viability, T/C [23] was 79.9% and the viability, T/C [24] was 70.9%. For the same compound, the viability, T/C [25] was 62.2%, the viability, T/C [26] was 66.3% and the viability, T/C [27] was 65%. It also gave a viability, T/C [28] of 61.5%, a viability, T/C [29] of 65.4% and a viability, T/C [30] of 65.3%. It also gave a viability, T/C [31] of 65%, a viability, T/C [32] of 61.6% and a viability, T/C [33] of 57.2%. For the same compound, the viability, T/C [34] was 62.5%, the viability, T/C [35] was 63% and the viability, T/C [36] was 57.3%.

`Cn1ncc(Cl)c1-c1cc(C(=O)NC(CN)Cc2cccc(F)c2)sc1Cl` (stereo unspecified) + COc1c(OCCCN2CCOCC2)ccc2c3n(c(=NC(=O)c4cnc(N)nc4)nc12)CCN3 was tested, and the IC50 (second compound 0.00316 µM) was over 10 µM, the IC50 (second compound 0.01 µM) was 8.26 µM and the IC50 (second compound 0.0316 µM) was 8.19 µM. The IC50 (second compound 0.1 µM) was 7.47 µM, the IC50 (second compound 0.316 µM) was 5.31 µM and the IC50 (second compound 1 µM) was 4.55 µM. It also gave a viability, T/C [1] of 86.6%, a viability, T/C [2] of 72% and a viability, T/C [3] of 90.8%. The viability, T/C [4] was 87.7%, the viability, T/C [5] was 72.7% and the viability, T/C [6] was 50%. It also gave a viability, T/C [7] of 118%, a viability, T/C [8] of 81.2% and a viability, T/C [9] of 93.7%. The viability, T/C [10] was 81.6%, the viability, T/C [11] was 62.6% and the viability, T/C [12] was 45.5%. The viability, T/C [13] was 86.1%, the viability, T/C [14] was 85.5% and the viability, T/C [15] was 89.2%. For the same compound, the viability, T/C [16] was 74%, the viability, T/C [17] was 71% and the viability, T/C [18] was 45.4%. It also gave a viability, T/C [19] of 78.2%, a viability, T/C [20] of 81.3% and a viability, T/C [21] of 68.3%. The viability, T/C [22] was 69.2%, the viability, T/C [23] was 64.7% and the viability, T/C [24] was 44.9%. The viability, T/C [25] was 80.9%, the viability, T/C [26] was 66.6% and the viability, T/C [27] was 64.7%. It also gave a viability, T/C [28] of 66.9%, a viability, T/C [29] of 63.4% and a viability, T/C [30] of 36.3%. For the same compound, the viability, T/C [31] was 68.5%, the viability, T/C [32] was 58.3% and the viability, T/C [33] was 61.6%. For the same compound, the viability, T/C [34] was 57.9%, the viability, T/C [35] was 57.8% and the viability, T/C [36] was 35.8%.

`CC(C)NCC(C(=O)N1CCN(c2ncnc3c2C(C)CC3O)CC1)c1ccc(Cl)cc1` (stereo unspecified) + CC(Nc1ccc2c(c1)OCCn1cc(N3C(=O)OCC3C(F)F)nc1-2)C(N)=O gave an IC50 (second compound 0.00316 µM) of over 10 µM, an IC50 (second compound 0.01 µM) of over 10 µM and an IC50 (second compound 0.0316 µM) of over 10 µM. For the same compound, the IC50 (second compound 0.1 µM) was over 10 µM, the IC50 (second compound 0.316 µM) was over 10 µM and the IC50 (second compound 1 µM) was over 10 µM. The viability, T/C [1] was 113%, the viability, T/C [2] was 113% and the viability, T/C [3] was 113%. It also gave a viability, T/C [4] of 94.6%, a viability, T/C [5] of 94.9% and a viability, T/C [6] of 92.1%. For the same compound, the viability, T/C [7] was 88.3%, the viability, T/C [8] was 79.1% and the viability, T/C [9] was 72.1%. For the same compound, the viability, T/C [10] was 87%, the viability, T/C [11] was 90.7% and the viability, T/C [12] was 79.7%. It also gave a viability, T/C [13] of 98%, a viability, T/C [14] of 95.4% and a viability, T/C [15] of 82.7%. For the same compound, the viability, T/C [16] was 92.8%, the viability, T/C [17] was 95.4% and the viability, T/C [18] was 89.4%. For the same compound, the viability, T/C [19] was 85.7%, the viability, T/C [20] was 84.6% and the viability, T/C [21] was 68%. For the same compound, the viability, T/C [22] was 84.1%, the viability, T/C [23] was 95.1% and the viability, T/C [24] was 70.8%. For the same compound, the viability, T/C [25] was 89.8%, the viability, T/C [26] was 68.3% and the viability, T/C [27] was 86%. The viability, T/C [28] was 86.3%, the viability, T/C [29] was 91.1% and the viability, T/C [30] was 91.5%. It also gave a viability, T/C [31] of 95.4%, a viability, T/C [32] of 87.5% and a viability, T/C [33] of 94.1%. The viability, T/C [34] was 83.6%, the viability, T/C [35] was 96.4% and the viability, T/C [36] was 74.2%.
